Measured values reported in patent US20260374767A1, “FUSED HETEROCYCLIC COMPOUNDS AND USES THEREOF” (Chengdu Zenitar Biomedical Technology Co., Ltd., priority 2022, published 2026).

Legend:
PARP1 = PARP1 (Homo sapiens, UniProt P09874); experiment: Determination of PARP1 Enzyme; assay type: biochemical; conditions: read-out: PARP-1 inhibition ratio
Description: 1.1 Determination of PARP1 Enzyme
1.1.1 Preparation of buffer solution: PBST: 1× PBS, 0.05% Tween-20; blocking solution: 1× PBS, 0.05% Tween-20, 5% BSA; reaction buffer: 50 mM Tris-HCl (pH 7.5), 0.005% Tween-20, 0.01% BSA.
1.1.2 Coating: A 50 ng/mL Histone coating solution was prepared by using 1× PBS, 25 μL of the coating solution was transferred to a 384-well reaction plate, and the reaction plate was coated overnight at 4 °C.
1.1.3 Washing: After the coating was completed, the coating solution was discarded, and the reaction plate was washed with the PBST solution by means of transferring 50 μL of the PBST to the 384-well reaction plate, letting it stand for 5 min, discarding the washing solution, refilling the reaction plate, and repeating the washing process 3 times. Finally, the reaction plate was tapped dry and the next step of blocking was proceeded with.
1.1.4 Blocking: 50 μL of the blocking solution was transferred to the 384-well reaction plate and set for 1 h.
Washing: After the blocking was completed, the blocking solution was discarded, the reaction plate was washed 3 times with the PBST solution according to the method in Step 2, and the reaction plate was tapped dry.
1.1.5 A 1,000× compound was prepared, 1 μL of the compound was transferred to a 96-well plate containing 199 μL of the reaction buffer, mixed well, and then 5 µL of the mixed compound was transferred to the 384-well reaction plate.
1.1.6 A 25/10× PARP1-DNA solution was prepared by using the reaction buffer, 10 μL of the PARP1-DNA solution was transferred to the 384-well reaction plate. For a negative control well, 10 μL of the DNA solution was transferred and the final concentration of PARP1 was 0.02 nM and that of DNA was 0.8 nM.
1.1.9 Washing: After the reaction was completed, the reaction liquid was discarded. The reaction plate was washed 3 times with the PBST solution according to the method in Step 2, and the reaction plate was tapped dry.
1.1.11 Washing: The anti-Poly/Mono-ADP Ribose Rabbit was discarded, the reaction plate was washed 3 times with the PBST solution according to the method in Step 2, and the reaction plate was tapped dry.
1.1.12 A 2,000× anti-rabbit IgG, HRP-linked Antibody was diluted with the blocking solution, 20 μL of the diluted anti-rabbit IgG, HRP-linked Antibody was added, and incubated at room temperature for 1 h.
1.1.13 Washing: The anti-rabbit IgG, HRP-linked Antibody was discarded, the reaction plate was washed 3 times with the PBST solution according to the method in Step 2, and the reaction plate was tapped dry.
1.1.14 Color developing: Femto-ECL Substrate A and Femto-ECL Substrate B were mixed in a 1:1 ratio, and 25 μL of the mixture was transferred to the 384-well reaction plate.
1.1.15 Reading: A relative light unit (RLU) was read with Envision.

[1] = Pharmacokinetic evaluation in Balb/c mice; assay type: in vivo; conditions: mouse, plasma, 1 mg/kg, PO
[2] = Body weight in MDA-MB-436 xenograft study; assay type: in vivo, NOD/SCID mice; conditions: for Body weight X ± SD, End: 24 days
Description: (§1) Animal assay: all viable experimental animals scheduled for assay; Assay time: All animals were weighed before the modeling for test grouping. After modeling, the mice were weighed once every 2 days, and the weight change of the mice was recorded in real time. Effective criteria: tumor volume (TV), relative tumor volume (RTV) and relative tumor growth rate of subcutaneously implanted tumor model. The long diameter and short diameter of the tumor was measured with vernier calipers every 2 days, and the anti-tumor effects of the tested drug was dynamically observed. The calculation formula of tumor volume (TV) was: TV (mm^3)=a×b2×0.5, where a and b were the long diameter and short diameter, respectively.
Each group consisted of 6 mice, all of which are administered orally once daily. […] After 24 days of administration, the tumor-bearing mice were anesthetized and euthanized. The tumor tissues were dissected, weighed, and photographed, and the tumor inhibition rate was calculated.

breast cancer MDA-MB-436 [3] = experiment: In-vivo pharmacodynamic study on subcutaneous xenograft tumor model of breast cancer MDA-MB-436; set-up: species or system human tumor cells in NOD/SCID mice; conditions: for inhibitory effects on tumor growth compared to blank control group: all dose groups
Description: Strain: NOD/SCID; Grade: SPF; Source: Beijing Vitron River Bio-technology Co., Ltd.
The cells were washed 3 times with pre-cooled PBS, centrifuged at 300 g for 10 min, collected, re-suspended in PBS, and counted with a blood cell counting chamber, and the cell concentration was adjusted. After cell collection, the cell suspension was pre-cooled on ice. 100 μL of the cell suspension was administered via subcutaneous injection into the dorsal flank of the mice, and the grouped treatment was started when the tumor volume reached 200-300 mm^3.
as §1, with “The long diameter and short diameter of the tumor was measured with vernier calipers every 2 days, and the anti-tumor effects of the tested drug was dynamically observed.” left out
The evaluation index for anti-tumor activity was the relative tumor growth rate T/C (%), and the calculation formula was as follows: […]
Where, TRTV is relative tumor volume of the treatment group; CRTV is relative tumor volume of the negative control group. […] The tumor inhibition rate (%) was calculated by the formula below: […]
All raw data within the facility were collected manually according to the experimental scheme and the relevant guidelines of the research institution, or gathered by using a data acquisition system. Manually collected data can be transcribed into software such as Excel for analysis and reporting. The data from each group were quantitative, and the experimental data for each group of animals in the tables were expressed as mean±standard deviation (Mean±SD). In the figures, the experimental data ware described as mean±standard error of the mean (Mean±SEM). Statistical analysis, including t-tests and survival analysis, was performed by using the software such as EXCEL and GraphPad Prism.
After 24 days of administration, the tumor-bearing mice were anesthetized and euthanized. The tumor tissues were dissected, weighed, and photographed, and the tumor inhibition rate was calculated.

MDA-MB-436 cells = experiment: Anti-proliferative activity assay, BRCA-mutated MDA-MB-436 cells (CCK8); assay type: cell-based; conditions: Homo sapiens, MDA-MB-436, BRCA-mutated, 72 h + 96 h
Excerpt: (§2) 2. Anti-Proliferative Activity Assay of Cell:

DLD-1 cells = experiment: Anti-proliferative activity assay, BRCA wild-type DLD-1 cells (CCK8); assay type: cell-based; conditions: Homo sapiens, 72 h + 96 h
Excerpt: as §2

breast cancer MDA-MB-436 [4] = experiment: Challenge experiment on subcutaneous xenograft tumor model of breast cancer MDA-MB-436 (large-volume tumors); conditions: 1 mg/kg orally once per day
[5] = 0.1 mg/kg orally once daily, 24 days

Chain of PARP1 (P09874 whole entry): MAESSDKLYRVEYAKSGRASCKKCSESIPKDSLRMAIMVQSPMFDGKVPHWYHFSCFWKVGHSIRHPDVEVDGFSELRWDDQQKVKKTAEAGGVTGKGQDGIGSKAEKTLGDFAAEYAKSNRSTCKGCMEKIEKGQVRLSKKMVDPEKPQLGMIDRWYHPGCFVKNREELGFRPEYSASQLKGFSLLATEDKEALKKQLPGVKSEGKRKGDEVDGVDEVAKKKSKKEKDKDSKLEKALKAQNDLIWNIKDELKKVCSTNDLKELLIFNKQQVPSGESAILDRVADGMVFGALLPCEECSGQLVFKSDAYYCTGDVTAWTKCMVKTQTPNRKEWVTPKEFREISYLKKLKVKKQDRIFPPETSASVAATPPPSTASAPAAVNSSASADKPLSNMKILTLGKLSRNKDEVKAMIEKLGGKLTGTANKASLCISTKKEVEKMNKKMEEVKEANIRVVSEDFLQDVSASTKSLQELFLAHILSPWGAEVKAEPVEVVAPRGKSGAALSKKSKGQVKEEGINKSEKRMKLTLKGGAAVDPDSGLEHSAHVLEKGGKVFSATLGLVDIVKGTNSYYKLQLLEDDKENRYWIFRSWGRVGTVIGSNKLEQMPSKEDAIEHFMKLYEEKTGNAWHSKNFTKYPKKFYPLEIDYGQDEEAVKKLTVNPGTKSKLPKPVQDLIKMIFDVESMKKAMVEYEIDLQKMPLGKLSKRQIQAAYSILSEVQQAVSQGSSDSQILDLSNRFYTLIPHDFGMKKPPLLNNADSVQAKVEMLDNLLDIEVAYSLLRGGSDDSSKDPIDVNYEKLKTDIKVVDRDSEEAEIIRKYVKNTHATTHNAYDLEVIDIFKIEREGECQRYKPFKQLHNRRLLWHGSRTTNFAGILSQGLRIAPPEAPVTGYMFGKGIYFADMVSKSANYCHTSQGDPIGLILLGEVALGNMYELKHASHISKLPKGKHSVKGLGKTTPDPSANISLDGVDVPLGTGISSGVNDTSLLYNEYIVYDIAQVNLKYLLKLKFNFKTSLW

Compound | inhibition at 0.01 µM (PARP1) [%] | inhibition at 0.1 µM (PARP1) [%] | inhibitory effects on tumor growth compared to blank control group (breast cancer MDA-MB-436 [3]; 24 days) | IC50 (MDA-MB-436 cells) [nM] | IC50 (DLD-1 cells) [nM] | other results
[2H]C([2H])([2H])C([2H])([2H])c1nc2ccc(CN3CC=C(c4ccc(C(=O)NC)nc4F)CC3)c(F)c2[nH]c1=O [Compound 14, 1′-((2-(ethyl-d5)-5-fluoro-3-oxo-3,4-dihydroquinoxalin-6-yl)methyl)-2-fluoro-N-methyl-1′,2′,3′,6′-tetrahydro-[3,4′-bipyridine]-6-carboxamide] | 98.9 | 99.1 | – | – | – | –
CCc1cc2ncc(CN3CC=C(c4ccc(C(=O)NC)nc4)CC3)cc2[nH]c1=O [Compound 1] | – | – | significant inhibitory effects on tumor growth | 0.9 | > 10000 | CL/F [1]: 0.167 mL/min/kg; Body weight X ± SD, End ([2]; 0.1 mg/kg orally once daily): 21.6 ± 1.1 g; Body weight X ± SD, Start ([2]; 0.1 mg/kg orally once daily): 21.6 ± 0.3 g; Tumor inhibition rate (breast cancer MDA-MB-436 [3]; [5]): 82.18%; Tumor weight X ± SD (breast cancer MDA-MB-436 [3]; [5]): 0.39 ± 0.28 g; Tumor volume X ± SD, End (breast cancer MDA-MB-436 [3]; 0.1 mg/kg orally once daily, end, 24 days): 304.9 ± 141.7 mm^3; Tumor volume X ± SD, Start (breast cancer MDA-MB-436 [3]; 0.1 mg/kg orally once daily, start): 271.4 ± 76.6 mm^3; tumor regression in large-volume tumors (breast cancer MDA-MB-436 [4]): complete regression of tumors
[2H]C([2H])([2H])NC(=O)c1ccc(C2=CCN(Cc3cnc4cc(CC)c(=O)[nH]c4c3)CC2)cn1 [Compound 2] | – | – | – | 1.1 | > 10000 | –
[2H]C([2H])([2H])NC(=O)c1ccc(C2=CCN(Cc3cnc4cc(C([2H])([2H])C([2H])([2H])[2H])c(=O)[nH]c4c3)CC2)cn1 [Compound 11, 1′-((7-(ethyl-d5)-6-oxo-5,6-dihydro-1,5-naphthyridin-3-yl)methyl)-N-(methyl-d3)-1′,2′,3′,6′-tet rahydro-[3,4′-bipyridine]-6-carboxamide] | – | – | – | 0.8 | > 10000 | –
[2H]C([2H])([2H])C([2H])([2H])c1nc2ccc(CN3CC=C(c4ccc(C(=O)NC)nc4)CC3)c(F)c2[nH]c1=O [Compound 13, 1′-((2-(ethyl-d5)-5-fluoro-3-oxo-3,4-dihydroquinoxalin-6-yl)methyl)-N-methyl-1′,2′,3′,6′-tetra hydro-[3,4′-bipyridine]-6-carboxamide] | 96.1 | 98.5 | – | – | – | –
CCc1cc2ncc(CN3CCN(c4ccc(C(=O)NC)nc4)CC3)cc2[nH]c1=O [AZD5305, reference compound] | – | – | significant inhibitory effects on tumor growth | – | – | Body weight X ± SD, End ([2]; 0.1 mg/kg orally once daily): 21.8 ± 1.0 g; Body weight X ± SD, Start ([2]; 0.1 mg/kg orally once daily): 21.9 ± 0.7 g
O=C(c1cc(Cc2n[nH]c(=O)c3ccccc23)ccc1F)N1CCN(C(=O)C2CC2)CC1 [Olaparib, reference compound] | – | – | significant inhibitory effects on tumor growth | – | – | Body weight X ± SD, End ([2]; 100 mg/kg orally once daily): 21.7 ± 1.4 g; Body weight X ± SD, Start ([2]; 100 mg/kg orally once daily): 21.9 ± 1.1 g
[2H]C([2H])([2H])C([2H])([2H])c1cc2ncc(CN3CC=C(c4ccc(C(=O)NC5CC5)nc4)CC3)cc2[nH]c1=O [Compound 12, N-cyclopropyl-1′-((7-(ethyl-d5)-6-oxo-5,6-dihydro-1,5-naphthyridin-3-yl)methyl)-1′,2′,3′,6′-tet rahydro-[3,4′-bipyridine]-6-carboxamide] | 99.8 | 99.9 | – | – | – | –
[2H]C(c1cnc2cc(CC)c(=O)[nH]c2c1)N1CC=C(c2ccc(C(=O)NC)nc2)CC1 (stereo not shown) [Compound 3] | – | – | – | 1 | > 10000 | –
[2H]C([2H])([2H])Cc1cc2ncc(CN3CC=C(c4ccc(C(=O)NC)nc4)CC3)cc2[nH]c1=O [Compound 16, 1′-((7-(ethyl-2,2,2-d3)-6-oxo-5,6-dihydro-1,5-naphthyridin-3-yl)methyl)-N-methyl-1′,2′,3′,6′-t etrahydro-[3,4′-bipyridine]-6-carboxamide] | – | – | – | 0.7 | > 10000 | –
